# Test results as given in patent US20120213758A1, “BIARYL PDE4 INHIBITORS FOR TREATING PULMONARY AND CARDIOVASCULAR DISORDERS” (DeCODE Genetics enf, priority 2007, published 2012).
# Where a name gives a salt, the structure may show the parent alone. Read-outs that look alike come from different tables or passages of the source.
# Tests used:
# hPDE4B = hPDE4B (Homo sapiens, UniProt Q07343); experiment: In-vitro real-time enzyme-coupled spectrophotometric assay for PDE4 enzymes (hPDE4B)
# hPDE4D = hPDE4D (Homo sapiens, UniProt Q08499); experiment: In-vitro real-time enzyme-coupled spectrophotometric assay for PDE4 enzymes (hPDE4D)
# Chain of hPDE4D (Q08499 whole entry): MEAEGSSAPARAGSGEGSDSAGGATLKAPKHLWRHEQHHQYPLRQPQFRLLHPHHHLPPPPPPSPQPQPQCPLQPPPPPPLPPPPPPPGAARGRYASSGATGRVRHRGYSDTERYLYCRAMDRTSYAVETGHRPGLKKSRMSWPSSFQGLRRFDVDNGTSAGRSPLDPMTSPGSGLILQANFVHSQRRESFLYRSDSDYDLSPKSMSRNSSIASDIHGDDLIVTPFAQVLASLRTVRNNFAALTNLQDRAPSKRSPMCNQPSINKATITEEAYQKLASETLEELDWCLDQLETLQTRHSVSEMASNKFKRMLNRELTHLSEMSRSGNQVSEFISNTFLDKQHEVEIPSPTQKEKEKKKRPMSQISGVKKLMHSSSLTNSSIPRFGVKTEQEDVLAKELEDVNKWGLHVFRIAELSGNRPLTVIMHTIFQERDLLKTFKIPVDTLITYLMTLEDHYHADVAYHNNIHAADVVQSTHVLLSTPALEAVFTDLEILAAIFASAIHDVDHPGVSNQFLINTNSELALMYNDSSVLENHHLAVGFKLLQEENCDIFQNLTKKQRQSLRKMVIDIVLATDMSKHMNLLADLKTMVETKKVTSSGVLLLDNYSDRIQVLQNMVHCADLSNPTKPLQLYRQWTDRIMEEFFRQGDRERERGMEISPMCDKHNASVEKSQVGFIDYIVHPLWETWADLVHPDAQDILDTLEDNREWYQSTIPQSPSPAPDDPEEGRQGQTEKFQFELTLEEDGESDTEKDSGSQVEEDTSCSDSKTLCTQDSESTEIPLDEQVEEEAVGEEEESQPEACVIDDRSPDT
# [1] = read-out: hPDE4B activity, enzyme-coupled NADH assay, absorbance at 340 nm
# [2] = read-out: hPDE4D activity, enzyme-coupled NADH assay, absorbance at 340 nm
# Chain of hPDE4B (Q07343 whole entry): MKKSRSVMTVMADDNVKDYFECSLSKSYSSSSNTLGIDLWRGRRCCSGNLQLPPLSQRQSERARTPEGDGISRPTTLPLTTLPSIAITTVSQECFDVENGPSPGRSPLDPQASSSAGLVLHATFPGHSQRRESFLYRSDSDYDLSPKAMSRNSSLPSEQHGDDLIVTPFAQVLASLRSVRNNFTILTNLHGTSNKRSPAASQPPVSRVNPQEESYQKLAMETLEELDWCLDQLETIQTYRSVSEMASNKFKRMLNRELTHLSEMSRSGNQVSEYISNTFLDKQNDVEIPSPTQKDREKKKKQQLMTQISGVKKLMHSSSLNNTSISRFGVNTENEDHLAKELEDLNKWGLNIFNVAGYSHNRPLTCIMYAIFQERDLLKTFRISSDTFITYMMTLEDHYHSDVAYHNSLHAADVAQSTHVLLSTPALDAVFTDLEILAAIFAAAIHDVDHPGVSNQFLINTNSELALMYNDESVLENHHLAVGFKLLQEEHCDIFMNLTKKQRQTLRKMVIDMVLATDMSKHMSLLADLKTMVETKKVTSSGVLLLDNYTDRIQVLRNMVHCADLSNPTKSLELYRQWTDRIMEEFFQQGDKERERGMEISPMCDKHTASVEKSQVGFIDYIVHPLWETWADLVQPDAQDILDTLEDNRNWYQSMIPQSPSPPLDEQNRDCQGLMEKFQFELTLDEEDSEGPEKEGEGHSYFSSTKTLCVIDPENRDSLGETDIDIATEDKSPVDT
Compound,IC50 (hPDE4D) [µM],also measured
1-[5-(3′-Chloro-2-fluoro-6-methoxy-biphenyl-3-ylmethyl)-pyrimitlin-2-yl]-piperidine-2-carboxylic acid [Example A-041],–,IC50 (hPDE4B; [1]): 5 to 20 µM; IC50 (hPDE4D; [2]): < 5 µM
"COc1ccc(CN2C(=O)c3ccccc3S2(=O)=O)cc1-c1cccc([N+](=O)[O-])c1 [Example A-002, 2-(6-Methoxy-3′-nitro-biphenyl-3-ylmethyl)-1,1-dioxo-1,2-dihydro-1lambda*6*-benzo[d]isothiazol-3-one]",5 to 20,–
"COc1ccc(Cn2cnc3c(Cl)nc(N)nc32)cc1-c1cccc([N+](=O)[O-])c1 [Example A-003, 6-Chloro-9-(6-methoxy-3′-nitro-biphenyl-3-ylmethyl)-9H-purin-2-ylamine]",< 5,IC50 (hPDE4B): 5 to 20 µM
"COc1ccc(Cn2cnc3c(=O)[nH]c(N)nc32)cc1-c1cccc([N+](=O)[O-])c1 [Example A-004, 2-Amino-9-(6-methoxy-3′-nitro-biphenyl-3-ylmethyl)-1,9-dihydro-purin-6-one]",5 to 20,IC50 (hPDE4B): 20 to 40 µM
"COC(=O)[C@H]1C[C@H](O)CN1Cc1ccc(OC)c(-c2cccc([N+](=O)[O-])c2)c1 [Example A-005, (2R,4S)-4-Hydroxy-1-(6-methoxy-3′-nitro-biphenyl-3-ylmethyl)-pyrrolidine-2-carboxylic acid methyl ester]",20 to 40,–
"COc1ccc(Cc2c(C)nn(CC(=O)O)c2C)cc1-c1cccc([N+](=O)[O-])c1 [Example A-006, [4-(6-Methoxy-3′-nitro-biphenyl-3-ylmethyl)-3,5-dimethyl-pyrazol-1-yl]-acetic acid]",< 5,IC50 (hPDE4B): 5 to 20 µM
"COc1ccc(Cn2ccc(C(=O)O)cc2=O)cc1-c1cccc([N+](=O)[O-])c1 [Example A-007, 1-(6-Methoxy-3′-nitro-biphenyl-3-ylmethyl)-2-oxo-1,2-dihydro-pyridine-4-carboxylic acid]",5 to 20,IC50 (hPDE4B): 5 to 20 µM
COc1ccc(Cc2ccc(NS(N)(=O)=O)cc2)c(F)c1-c1cccc(Cl)c1 [Example A-008],< 5,IC50 (hPDE4B): < 5 µM
COc1ccc(Cc2ccc(NS(N)(=O)=O)nc2)c(F)c1-c1cccc(Cl)c1 [Example A-010],< 5,IC50 (hPDE4B): < 5 µM
COc1ccc(Cc2ccc(NS(N)(=O)=O)c(O)c2)c(F)c1-c1cccc(Cl)c1 [Example A-011],< 5,IC50 (hPDE4B): 5 to 20 µM
COc1ccc(Cc2cnc(NS(N)(=O)=O)nc2)c(F)c1-c1cccc(Cl)c1 [Example A-012],< 5,IC50 (hPDE4B): < 5 µM
"COc1ccc(Cc2ccc(NC(=O)NCC(=O)O)cc2)c(F)c1-c1cccc(Br)c1 [Example A-022, {3-[4-(3′-Bromo-2-fluoro-6-methoxy-biphenyl-3-ylmethyl)-phenyl]-ureido}-acetic acid]",< 5,–
"COc1ccc(Cc2ccc(NC(=O)NCCC(=O)O)cc2)c(F)c1-c1cccc(Br)c1 [Example A-023, 3-{3-[4-(3′-Bromo-2-fluoro-6-methoxy-biphenyl-3-ylmethyl)-phenyl]-ureido}-propionic acid]",< 5,–
"CCOC(=O)CNC(=O)Nc1nnc(Cc2ccc(OC)c(-c3cccc(Cl)c3)c2F)s1 [Example A-024, {3-[5-(3′-Chloro-2-fluoro-6-methoxy-biphenyl-3-ylmethyl)-[1,3,4]thiadiazol-2-yl]-ureido}-acetic acid ethyl ester]",< 5,–
"CCOC(=O)CCNC(=O)Nc1nnc(Cc2ccc(OC)c(-c3cccc(Cl)c3)c2F)s1 [Example A-025, 3-{3-[5-(3′-Chloro-2-fluoro-6-methoxy-biphenyl-3-ylmethyl)-[1,3,4]thiadiazol-2-yl]-ureido}-propionic acid ethyl ester]",< 5,–
"COc1ccc(Cc2nnc(NC(=O)NCC(=O)O)s2)c(F)c1-c1cccc(Cl)c1 [Example A-026, {3-[5-(3′-Chloro-2-fluoro-6-methoxy-biphenyl-3-ylmethyl)-[1,3,4]thiadiazol-2-yl]-ureido}-acetic acid]",< 5,–
CCOC(=O)CCNC(=O)Nc1ccc(Cc2ccc(OC)c(-c3cccc(Cl)c3)c2F)cn1 [Example A-029],< 5,–
"CCOC(=O)C1CCN(C(=O)c2ccc(Cc3ccc(OC)c(-c4cccc(Cl)c4)c3F)cn2)CC1 [Example A-033, 1-[5-(3′-Chloro-2-fluoro-6-methoxy-biphenyl-3-ylmethyl)-pyridine-2-carbonyl]-piperidine-4-carboxylic acid ethyl ester]",< 5,–
"CCOC(=O)c1cn2cc(Cc3ccc(OC)c(-c4cccc(Cl)c4)c3F)ccc2n1 [Example A-039, 6-(3′-Chloro-2-fluoro-6-methoxy-biphenyl-3-ylmethyl)-imidazo[1,2-a]pyridine-2-carboxylic acid ethyl ester]",< 5,–
"COC(=O)C1CCN(c2ncc(Cc3ccc(OC)c(-c4cccc(Cl)c4)c3F)cn2)C1 (centres unmarked) [Example A-045, 1-[5-(3′-Chloro-2-fluoro-6-methoxy-biphenyl-3-ylmethyl)-pyrimidin-2-yl]-pyrrolidine-3-carboxylic acid methyl ester]",< 5,–
"COc1ccc(Cc2ccc(N3CCC3C(=O)O)nc2)c(F)c1-c1cccc(Cl)c1 (centres unmarked) [Example A-055, 1-[5-(3′-chloro-2-fluoro-6-methoxy-biphenyl-3-ylmethyl)-pyridin-2-yl]-azetidine-2-carboxylic acid]",–,IC50 (hPDE4B; [1]): < 5 µM
"CCNC(=O)N(CC(=O)O)c1ccc(Cc2ccc(OC)c(-c3cccc(Cl)c3)c2F)cn1 [Example A-056, {1-[5-(3′-chloro-2-fluoro-6-methoxy-biphenyl-3-ylmethyl)-pyridin-2-yl]-3-ethyl-ureido}-acetic acid]",< 5,–
"NC(=O)Nc1ccc(Cc2ccc(OS(=O)(=O)O)c(-c3cccc(Cl)c3)c2)cc1 [Example A-062, Sodium sulfate of [4-(3′-Chloro-6-hydroxy-biphenyl-3-ylmethyl)-phenyl]-urea]",–,IC50 (hPDE4D; [2]): < 5 µM
"COC(=O)[C@@H]1CCCN1c1ccc(Cc2ccc(OC)c(-c3cccc(Cl)c3)c2F)cn1 [Example A-069, (S)-1-[5-(3′-chloro-2-fluoro-6-methoxy-biphenyl-3-ylmethyl)-pyridin-2-yl]-pyrrolidine-2-carboxylic acid methyl ester]",< 5,–
"COc1ccc(Cc2ccc(C(=O)O)nc2)cc1-c1cccc(Cl)c1 [Example A-071, 5-(3′-Chloro-6-methoxy-biphenyl-3-ylmethyl)-pyridine-2-carboxylic acid]",< 5,–
"COc1ccc(Cc2ccc(N(C)CC(=O)O)nc2)cc1-c1cccc(Cl)c1 [Example A-077, {[5-(3′-chloro-6-methoxy-biphenyl-3-ylmethyl)-pyridin-2-yl]-methyl-amino}-acetic acid]",< 5,–
"CN(CC(=O)O)c1ccc(Cc2ccc(OC(F)F)c(-c3cccc(Cl)c3)c2)cn1 [Example A-078, {[5-(3′-Chloro-6-difluoromethoxy-biphenyl-3-ylmethyl)-pyridin-2-yl]-methyl-amino}-acetic acid]",< 5,–
"C[C@H](C(=O)O)N(C)c1ccc(Cc2ccc(OC(F)F)c(-c3cccc(Cl)c3)c2)cn1 [Example A-079, (R)-2-{[5-(3′-Chloro-6-difluoromethoxy-biphenyl-3-ylmethyl)-pyridin-2-yl]-methyl-amino}-propionic acid]",< 5,–
"COc1ccc(Cc2ccc(F)cc2)cc1-c1ccc[n+]([O-])c1 [Example B-084, 3-[5-(4-Fluoro-benzyl)-2methoxy-phenyl]-pyridine 1-oxide]",5 to 20,–
